Test results from patent publication US8124111B2, “Immunomodulation by altering sphingosine 1-phosphate lyase (SPL) activity” (Children's Hospital & Research Center at Oakland, priority 2005, dated 2012).

How the values were obtained:
[1] = test system: human SPL luciferase reporter construct; test: SPL gene expression, human SPL luciferase reporter in HEK293 cells; assay type: cell-based; conditions: 0.3 μM or 3.0 μM, 24 hours
Protocol: (A) SPL gene expression. HEK293 cells were co-transfected with a human SPL luciferase reporter construct and the sea pansy luciferase reporter as a control for transfection efficiency. Twenty-four hours after transfection, cells were treated with 0.3 μM FTY720, 3.0 μM FTY720 or vehicle and incubated for another 24 hours at 37° C. Luciferase activity was then determined as a measure of expression, as described in Experimental Methods. Values shown are luciferase activity normalized to sea pansy luciferase; (B) SPL protein expression. Thymic extracts from control mice (time 0) and mice treated with FTY720 for 24 hours were evaluated for SPL protein expression by immunoblotting. Actin was used as a loading control.
SPL expression: To evaluate the effect of FTY720 and FTY720-P on SPL gene expression, HEK293 cells were treated for 30 minutes with 3 μM of either drug, followed by transfection with pSPL-BamHI, a human SPL-luciferase reporter construct. After 48 hours, reporter expression was determined by luciferase activity as described (Oskouian et al., (2005) J Biol Chem 280, 18403-18410)). Western blotting of mouse tissue extracts was performed using a 1:2000 dilution of polyclonal sera raised against the murine SPL C-terminal peptide: (NH2)—V-T-Q-G-N-Q-M-N-G-S—P—K—P—R—(COOH). [SEQ ID NO:11] […]

S1P = S1P measurements in murine tissue after FTY720 treatment; assay type: in vivo
Protocol: Drug treatments and leukocyte/lymphocyte counts: Four-week old FVB or C3H mice were obtained from Charles River Laboratories (Wilmington, Mass.). Animals were maintained in a pathogen-free facility in microisolator cages. Mice were anaesthetized with isoflurane inhalation, and a single dose of FTY720 (at 1 or 3 mg/kg) or GT11 (at 1, 10 or 100 mg/kg) in sterile water was injected intraperitoneally at time zero. Blood counts were determined by Coulter counter (Coulter Instruments, Hialeah, Fla.) and by manual differential counting. Mice were euthanized by CO2 inhalation at various time points post-injection, followed by tissue harvest. All animal studies were performed in accordance with approved CHORI IACUC protocols.
S1P measurements: S1P was isolated by two-phase lipid extraction, derivatized with OPA and quantitated by HPLC essentially as described (Jiang et al, (2004) Proc Natl Acad Sci USA 101, 17825-17830; Fyrst et al., (2004) J Lipid Res 45, 54-62; Caligan et al., (2000) Anal. Biochem. 281, 36-44). All tissues were weighed prior to snap freezing in liquid nitrogen and were stored at −100° C. until processing. One nanomole of C17-S1P and PSo were added as internal standards before homogenization of tissues. Lipids were extracted with 1 ml mixture of chloroform and methanol (1:2 ratio). Samples were incubated at room temperature with sonication for 3 hours and then dried by speed vac. One ml of 0.1N NaOH in methanol was added for 1 hour at 37° C. to achieve hydrolysis. After addition of 4 ml chloroform and 4 ml 1M KCl, samples were mixed and phases separated by centrifugation. The organic phase was collected and dried for sphingosine determination. The aqueous phase was mixed with 300 μl concentrated HCl and 6 ml chloroform. The phases were separated by centrifugation, and the organic phase was collected and dried for S1P determination. All samples for S1P determination were re-dissolved in methanol. After derivation with OPA, samples were injected onto HPLC for quantification. The mobile phase was methanol:10 mM phosphate buffer (pH 7.2):1M tetrabutylammonium dihydrogen phosphate (TBAP) in water=83:16:1, v/v/v and the flow rate was 1 ml/min.
FTY720 administration minimally affects tissue SIP levels—SK is known to be responsible for S1P synthesis, whereas SPL and S1P phosphatases are responsible for S1P catabolism. Since FTY720 interacts with both SK and SPL and may potentially influence the efficiency of both S1P synthesis and degradation, the sum effect of FTY270 administration on tissue S1P levels was determined. FTY720 treatment was associated with a slight increase in thymic tissue S1P at 36 hours, followed by a return to baseline levels by 48 hours (Table 2). […] S1P levels increased somewhat more dramatically in splenic tissue after FTY720 treatment (Table 2). […] According to non-limiting theory, simultaneous inhibition of SPL may account for the stability of tissue S1P levels in response to drug treatment.

CCCCCCCCc1ccc(CCC(N)(CO)CO)cc1 [FTY720]
SPL gene expression (luciferase activity normalized to sea pansy luciferase) [1]: not affected | S1P (spleen) (S1P; 24 hours after FTY720): 15121.31 picomoles per gram of wet weight tissue | S1P (spleen) (S1P; 36 hours after FTY720): 18482.30 picomoles per gram of wet weight tissue | S1P (spleen) (S1P; 48 hours after FTY720): 12365.84 picomoles per gram of wet weight tissue | Dihydrosphingosine-1-P (DHS1P) tissue levels (S1P; throughout 48 hours of treatment): remained stable | S1P (thymus) (S1P; 24 hours after FTY720): 3000.69 picomoles per gram of wet weight tissue | S1P (thymus) (S1P; 36 hours after FTY720): 3917.48 picomoles per gram of wet weight tissue | S1P (thymus) (S1P; 48 hours after FTY720): 3194.45 picomoles per gram of wet weight tissue
